# Source: patent US6716866B2, “Aryl-benzimidazole compounds having antiinfective activity” (GeneSoft Pharmaceuticals, Inc., priority 2001, dated 2004)
# Experiments:
# Assay type in all cases: cell-based
# [1] = tested on: S. aureus ATCC 33591; test: MIC against drug-resistant bacteria, S. aureus ATCC 33591; conditions: organism C = S. aureus ATCC 33591, methycillin resistant strain (MRSA)
# Protocol: (§1) Compounds according to this invention were screened for their in vitro activities against selected species of bacteria and fungi. The minimal inhibition concentration (MIC) of these compounds was determined using the National Committee for Clinical Laboratory Standards (NCCLS) broth microdilution assay in microtiter plates, as set forth in: (1) the guidelines of the National Committee for Clinical Laboratory Standards (NCCLS) Document M7-A4 (NCCLS, 1997); (2) the guidelines of the National Committee for Clinical Laboratory Standards (NCCLS) Document M11-A4 (NCCLS, 1997); and (3) the guidelines and reference method of the National Committee for Clinical Laboratory Standards (NCCLS) Document M27-T (NCCLS, 1995). For antifungal essays, the method recommended in Murray, PR., 1995 Manual of Clinical Microbiology (ASM Press, Washington, D.C.), was employed.
# (§2) Further, compounds (I) are effective against drug-resistant bacteria, as evidenced by the data in Table 2 below:
# (§3) ATCC 27660 and ATCC 33591 are methycillin resistant strains of S. aureus (MRSA's). ATCC 51559 is a vancomycin resistant strain of E. faecium (VRE). ATCC 12228 is a methycillin resistant strain of S. epidermis (MRSE). ATCC 51422 is a penicillin resistant strain of S. pneumoniae.
# [2] = tested on: E. faecium ATCC 51559; test: MIC against drug-resistant bacteria, E. faecium ATCC 51559; conditions: organism A = E. faecium ATCC 51559, vancomycin resistant strain (VRE)
# Protocol: as §1, §2, §3
# [3] = tested on: S. epidermis ATCC 12228; test: MIC against drug-resistant bacteria, S. epidermis ATCC 12228; conditions: organism D = S. epidermis ATCC 12228, methycillin resistant strain (MRSE)
# Protocol: as §1, §2, §3
# [4] = tested on: S. pneumoniae ATCC 51422; test: MIC against drug-resistant bacteria, S. pneumoniae ATCC 51422; conditions: organism E = S. pneumoniae ATCC 51422, penicillin resistant strain
# Protocol: as §1, §2, §3
# [5] = tested on: S. aureus ATCC 27660; test: MIC against drug-resistant bacteria, S. aureus ATCC 27660; conditions: organism B = S. aureus ATCC 27660, methycillin resistant strain (MRSA)
# Protocol: as §1, §2, §3
SMILES,Minimum Inhibitoty Concentration (MIC) [1],Minimum Inhibitoty Concentration (MIC) [2],Minimum Inhibitoty Concentration (MIC) [3],Minimum Inhibitoty Concentration (MIC) [4],Minimum Inhibitoty Concentration (MIC) [5]
Cn1cc(NC(=O)c2cc3ccccc3cn2)cc1C(=O)Nc1cc(-c2nc3ccc(C(=O)NCCN4CCC(O)CC4)cc3[nH]2)n(C)c1 [Compound I-32],+++ (MIC ≦4),+++ (MIC ≦4),+++ (MIC ≦4),+++ (MIC ≦4),+++ (MIC ≦4)
CCN(CC)CCNC(=O)c1ccc2nc(-c3cc(NC(=O)c4cc(NC(=O)c5sccc5Cl)cn4C)cn3C)[nH]c2c1 [Compound I-40],+++ (MIC ≦4),+++ (MIC ≦4),+++ (MIC ≦4),+++ (MIC ≦4),+++ (MIC ≦4)
COCn1cc(NC(=O)c2ccc3nc(-c4cc(NC(=O)c5sccc5Cl)cn4C)[nH]c3c2)cc1C(=O)NCCN1CCSCC1 [Compound I-34],+++ (MIC ≦4),,+++ (MIC ≦4),,
Cn1cc(NC(=O)c2sc3ccccc3c2Cl)cc1C(=O)Nc1cc(-c2nc3ccc(C(=O)NCCN4CCSCC4)cc3[nH]2)n(C)c1 [Compound I-23],++ (MIC between 4 and 12),+++ (MIC ≦4),+++ (MIC ≦4),+++ (MIC ≦4),+++ (MIC ≦4)
CCN(CC)CCNC(=O)c1ccc2nc(-c3cc(NC(=O)c4cc(NC(=O)c5sc6ccccc6c5Cl)cn4C)cn3C)[nH]c2c1 [Compound I-25],,,,,+++ (MIC ≦4)
CCOC(=O)c1ccc2nc(-c3cc(NC(=O)c4cc(NC(=O)c5ccc(F)cc5NCCN5CCOCC5)cn4C)cn3C)[nH]c2c1 [Compound I-16],,,,,"+ (MIC from 12 to 32, inclusive)"
C[C@@H]1CN(CCNC(=O)c2ccc3nc(-c4cc(NC(=O)c5cc(NC(=O)c6sc7ccccc7c6Cl)cn5C)cn4C)[nH]c3c2)C[C@H](C)O1 [Compound I-26],"+ (MIC from 12 to 32, inclusive)",+++ (MIC ≦4),+++ (MIC ≦4),+++ (MIC ≦4),+++ (MIC ≦4)
CCN(CC)CCCNC(=O)c1ccc2nc(-c3cc(NC(=O)c4cc(NC(=O)c5cc6ccccc6cn5)cn4C)cn3C)[nH]c2c1 [Compound I-37],+++ (MIC ≦4),,,,+++ (MIC ≦4)
Cn1cc(NC(=O)c2sccc2Cl)cc1C(=O)Nc1cc(-c2nc3ccc(C(=O)NCCN4CCSCC4)cc3[nH]2)n(C)c1 [Compound I-38],+++ (MIC ≦4),+++ (MIC ≦4),+++ (MIC ≦4),+++ (MIC ≦4),+++ (MIC ≦4)
CN(C)CCCNC(=O)c1ccc2nc(-c3cc(NC(=O)c4cc(NC(=O)c5cc6ccccc6cn5)cn4C)cn3C)[nH]c2c1 [Compound I-33],+++ (MIC ≦4),+++ (MIC ≦4),+++ (MIC ≦4),+++ (MIC ≦4),+++ (MIC ≦4)
Cn1cc(NC(=O)c2cc3ccccc3cn2)cc1C(=O)Nc1cc(-c2nc3ccc(C(=O)NCCN4CCSCC4)cc3[nH]2)n(C)c1 [Compound I-30],,+++ (MIC ≦4),+++ (MIC ≦4),,+++ (MIC ≦4)
CCOC(=O)c1ccc2nc(-c3cc(NC(=O)c4cc(NC(=O)c5ccc(F)cc5NCCN5CCSCC5)cn4C)cn3C)[nH]c2c1 [Compound I-17],,,,,+++ (MIC ≦4)
CCN(CC)CCNC(=O)c1ccc2nc(-c3cc(NC(=O)c4cc(NC(=O)c5cc6ccccc6cn5)cn4C)cn3C)[nH]c2c1 [Compound I-27],,+++ (MIC ≦4),+++ (MIC ≦4),,+++ (MIC ≦4)

# The remaining lines, values ahead:
Minimum Inhibitoty Concentration (MIC) [1],Minimum Inhibitoty Concentration (MIC) [2],Minimum Inhibitoty Concentration (MIC) [3],Minimum Inhibitoty Concentration (MIC) [4],Minimum Inhibitoty Concentration (MIC) [5],SMILES
+++ (MIC ≦4),+++ (MIC ≦4),+++ (MIC ≦4),+++ (MIC ≦4),+++ (MIC ≦4),Cn1cc(NC(=O)c2ccc3nc(-c4cc(NC(=O)c5ccc(F)cc5F)cn4C)[nH]c3c2)cc1C(=O)NCCN1CCOCC1 [Compound I-39]
+++ (MIC ≦4),+++ (MIC ≦4),+++ (MIC ≦4),+++ (MIC ≦4),+++ (MIC ≦4),Cn1cc(NC(=O)c2ccc(F)cc2F)cc1C(=O)Nc1cc(-c2nc3ccc(C(=O)NCCN4CCSCC4)cc3[nH]2)n(C)c1 [Compound I-20]
,+++ (MIC ≦4),+++ (MIC ≦4),,+++ (MIC ≦4),Cn1cc(NC(=O)c2ccc3nc(-c4cc(NC(=O)c5ccc(Cl)cc5F)cn4C)[nH]c3c2)cc1C(=O)NCCN1CCCCC1 [Compound I-28]
,,,,+++ (MIC ≦4),CCOC(=O)c1ccc2nc(-c3cc(NC(=O)c4cc(NC(=O)c5ccc(F)cc5NCCN5CCCCC5)cn4C)cn3C)[nH]c2c1 [Compound I-18]
+++ (MIC ≦4),+++ (MIC ≦4),+++ (MIC ≦4),+++ (MIC ≦4),+++ (MIC ≦4),Cn1cc(NC(=O)c2ccc(Cl)cc2F)cc1C(=O)Nc1cc(-c2nc3ccc(C(=O)NCCN4CCSCC4)cc3[nH]2)n(C)c1 [Compound I-14]
+++ (MIC ≦4),+++ (MIC ≦4),+++ (MIC ≦4),+++ (MIC ≦4),+++ (MIC ≦4),Cn1cc(NC(=O)c2ccc3nc(-c4cc(NC(=O)c5ccc(F)cc5F)cn4C)[nH]c3c2)cc1C(=O)NCCN1CCCCC1 [Compound I-35]
,,,,+++ (MIC ≦4),Cn1cc(NC(=O)c2sc3ccccc3c2Cl)cc1C(=O)Nc1cc(-c2nc3ccc(C(=O)NCCN4CCCCC4)cc3[nH]2)n(C)c1 [Compound I-24]
+++ (MIC ≦4),+++ (MIC ≦4),+++ (MIC ≦4),+++ (MIC ≦4),+++ (MIC ≦4),Cn1cc(NC(=O)c2ccc(F)cc2F)cc1C(=O)Nc1cc(-c2nc3ccc(C(=O)NCCN4CCOCC4)cc3[nH]2)n(C)c1 [Compound I-19]
+++ (MIC ≦4),+++ (MIC ≦4),+++ (MIC ≦4),+++ (MIC ≦4),+++ (MIC ≦4),Cn1cc(NC(=O)c2ccc(Cl)cc2F)cc1C(=O)Nc1cc(-c2nc3ccc(C(=O)NCCN4CCCCC4)cc3[nH]2)n(C)c1 [Compound I-15]
